Holding throughout (assay type): functional, cell-based
For one assay, the system named is HepG2. The experiment in a line: Antiproliferative activity against human HepG2 by MTT assay. A general note: Formazan colour is commonly taken as a measure of viable cells.
The test system of the next assay is HeLa. Nature of the assay: Antiproliferative activity against human HeLa by MTT assay.
Another assay concerns A549. Nature of the assay: Antiproliferative activity against human A549 by MTT assay.
A further assay relates to AGS. The experiment in a line: Antiproliferative activity against human AGS by MTT assay.

One may read the IC50 as the concentration that gives 50% inhibition.

As for `OC/C=C(\Cc1ccccc1)c1ccccn1`, the IC50 came out at 1.6 mM in the assay with HepG2, 1.38 mM with HeLa, 1.13 mM in the assay with A549 and 1.98 mM with AGS.

Source of the values: ChEMBL document CHEMBL1138873, “A novel antiproliferative agent, phenylpyridineylbutenol, isolated from Streptomyces sp” (Bioorg Med Chem Lett, 2006).
